On to `COCCc1nc2cc(N)ccc2o1`, for which the melting point is 44 to 46 °C.
As to `CC(C)NC(=O)NC(C)C`, the melting point lay in the range of 191 to 193 °C.
The molecule `O=C(c1cccnc1)C1CCOCC1` gave a melting point of 43 to 45 °C.
`N#Cc1ccc(S(=O)(=O)NCC2CCCO2)cc1` (centres undefined): the melting point was in the range of 123 to 125 °C.
To `Cc1cc(C)c(C(N)=O)c(N2CCCC2)n1` belongs 174 to 176 °C; to `c1cc2[nH]nnc2cn1`, 240 to 242 °C; to `Nc1cc(N2CCCS2(=O)=O)ccc1O`, 134 to 136 °C.
To `Cc1ccc(-c2csc(N)n2)o1` belongs 102 to 104 °C; to `N#Cc1ccc(Cn2cnc3ccccc32)cc1`, 103 to 105 °C.
For the molecule `O=C1C=CC(=O)N1C1CCOCC1`, the melting point was in the range of 169 to 171 °C.
To `Nc1ccc(F)cc1-n1cccc1` belongs 84 to 86 °C.
Consider `Cc1c(I)cccc1[N+](=O)[O-]`, for which the melting point fell in the range of 34 to 36 °C.
Molecule `CCOc1ccc(S(=O)(=O)NN)cc1` came in with a melting point of 114 to 116 °C.
To `CC(=O)NC1=NN(C(C)=O)C(C)(c2ccccc2)S1` (centres undefined) belongs 223 to 225 °C; to `O=C(O)C1Cc2cc(Cl)ccc2O1` (centres undefined), 114 to 118 °C; to `CC1CNCC(C)N1C(=O)OC(C)(C)C` (centres undefined), 61 to 63 °C.
In the case of `CC(C)(C)OC(=O)N1CCN(C(N)=O)CC1`, the melting point lay within 175 to 177 °C.
To `O=C1CCN(C(=O)c2ccccc2Cl)CC1` belongs 107 to 109 °C; to `Fc1ccc(-c2nnc3cc(Cl)ncn23)c(F)c1`, 170 to 172 °C; to `O=c1[nH]c(=O)c2cc(S(=O)(=O)Cl)ccc2[nH]1`, 272 to 274 °C.
To `CCOc1cc2c(cc1/C=C/C(=O)O)OC(C)C2` (centres undefined) belongs 169 to 171 °C; to `Cc1cc(Br)cc(C)c1NCc1ncc[nH]1`, 142 to 144 °C.
To `Cc1nscc1C(=O)O` belongs 219 to 221 °C.
In the case of `NC(=O)c1csc(C=O)c1`, the melting point lay in the range of 155 to 157 °C.
To `Nc1ccc(S(=O)(=O)NCC(F)(F)F)cc1` belongs 128 to 130 °C; to `CC(=O)c1cnc2ccnn2c1C`, 80 to 82 °C; to `CC1(c2ccc([N+](=O)[O-])cc2)NC(=O)NC1=O` (centres undefined), 235 to 237 °C.
To `COc1ccc2nc(O)c(C(=O)O)cc2c1` belongs 309 to 311 °C; to `CCN(CC)c1ccnc(NN)n1`, 84 to 86 °C.
In turn, `Cc1cc(C(=O)NN)c(C)n1-c1ccc(F)cc1` yielded a melting point of 160 to 162 °C.
As to `O=C(O)CN1c2cccc3cccc(c23)S1(=O)=O`, the melting point fell in the range of 216 to 218 °C.
On to `CC(=O)N(c1ccccc1)c1nc(C=O)cs1`, for which the melting point lay in the range of 150 to 152 °C.
To `NC(=O)c1cc(F)ccc1N` belongs 143 to 145 °C; to `COc1cccc(SCC(=O)O)c1`, 60 to 62 °C; to `COC(=O)/C=C/c1ccc(S(=O)(=O)Cl)cc1`, 112 to 114 °C.
Consider `O=C(O)c1c(O)cc(Cl)cc1Cl`, for which the melting point lay within 189 to 191 °C.
In the case of `O=C(O)Cc1cccc(OC(F)F)c1`, the melting point was in the range of 52 to 54 °C.
With `Nc1nc(-c2c[nH]c3ccccc23)cs1`, the melting point fell in the range of 167 to 169 °C.
Consider `O=C(CCl)Nc1ccc(OCc2ccccc2)cc1`, for which the melting point fell in the range of 118 to 120 °C.
`Cc1ccc(O)c(C(=O)Nc2ccncc2)c1` returned a melting point of 249 to 251 °C.
Molecule `CC(NC(=O)CCl)c1ccc2ccccc2c1` (centres undefined) yielded a melting point of 201 to 203 °C.
For `O=C(O)c1ccc(N2CCCCC2=O)cc1`, the melting point was 213 to 215 °C.
To `CN(C)c1ccc(N)cc1Cl` belongs 72 to 73 °C.
To `OCc1ccc(Oc2ccc(Br)cc2)c(F)c1` belongs 68 to 70 °C; to `COc1cc(OC)c(C(C)=O)cc1Cl`, 134 to 136 °C.
`CC(C)C(=O)N1CCC(C(=O)O)CC1` showed a melting point of 102 to 104 °C.
Molecule `COc1cc(OC)c(NC(=O)c2cc3ccccc3cc2O)cc1Cl` displayed a melting point of 199 to 201 °C.
For the molecule `Cc1nn(C)c(Cl)c1CC(=O)O`, the melting point lay within 169 to 171 °C.
To `Cc1nc(-c2ccc(N)cc2)oc1C` belongs 150 to 152 °C; to `CCNS(=O)(=O)c1ccc(Br)c(C)c1`, 91 to 93 °C.
For the molecule `O=C1Nc2c(F)cc(Cl)cc2C1=O`, the melting point is 219 to 221 °C.
To `N#Cc1ccccc1Oc1ccc(N)cc1` belongs 118 to 120 °C.
`O=C1Cc2cc(S(=O)(=O)Cl)c(Cl)cc2N1` returned a melting point of 185 to 187 °C.
The molecule `COc1ccc(Br)cc1C1NC(=O)NC1=O` (centres undefined) yielded a melting point of 209 to 211 °C.
To `O=C(NC1CC1)c1cccc(O)c1` belongs 157 to 159 °C; to `CCc1ccccc1NC(=O)CCl`, 106 to 108 °C; to `NC(=O)CCNC(=O)OCc1ccccc1`, 164 to 166 °C.
To `Clc1cnc(Cl)c(-c2ccccc2)n1` belongs 52 to 54 °C.
`N#Cc1cc(F)cc(F)c1[N+](=O)[O-]`: the melting point lay within 95 to 97 °C.
Turning to `O=C(O)c1cnn2c(-c3ccccc3)ccnc12`, the melting point lay in the range of 228 to 230 °C.
With `CCS(=O)(=O)NCCc1ccc(S(N)(=O)=O)s1`, the melting point fell in the range of 121 to 123 °C.
`NC(=O)CN1CCC(N)CC1` gave a melting point of 74 to 76 °C.
Consider `COc1cc(OC)cc(N2CC(C(=O)O)CC2=O)c1` (centres undefined), for which the melting point fell in the range of 125 to 127 °C.
Consider `COc1ccccc1NC(=O)c1ccc(NC(=O)CCCl)cc1`, for which the melting point lay within 193 to 195 °C.
To `CCOC(=O)c1csc(-c2ccccn2)n1` belongs 67 to 69 °C; to `Cc1ccc(Cl)c2c1C(=O)C(=O)N2`, 209 to 211 °C.
The molecule `Nc1cccc(Oc2cnccn2)c1` registered a melting point of 89 to 91 °C.
To `CC(C)C(O)(C(=O)O)c1ccccc1` (centres undefined) belongs 148 to 150 °C.
To `CS(=O)(=O)N1CCc2cc(C(=O)CCl)ccc21` belongs 137 to 139 °C.
To `O=C(O)c1ccnc(Cl)c1I` belongs 218 to 220 °C.
On to `CNc1cc(Cl)ncn1`, for which the melting point is 138 to 140 °C.
To `COc1cncc(C=CC(=O)O)c1` belongs 172 to 174 °C; to `COc1cc2nc(-c3ccccc3)nc(Cl)c2cc1OC`, 132 to 134 °C; to `COC(=O)c1ccc(CBr)cc1OC`, 44 to 46 °C.
To `Cc1nn(C)c2ncc(SC(=O)N(C)C)cc12` belongs 144 to 146 °C.
Take `COc1ccc(-c2noc(=O)[nH]2)cc1OC`: the melting point fell in the range of 211 to 213 °C.
To `CS(=O)(=O)c1ccc(C(N)=O)cc1` belongs 226 to 228 °C; to `O=[N+]([O-])c1ccc(NCC2CCCO2)c(F)c1` (centres undefined), 68 to 70 °C.
`Nc1c(Cl)cc(Cl)c2c1N=S=N2` had a melting point of 176 to 178 °C.
To `O=C(O)c1ccc(Oc2ccc(F)cc2[N+](=O)[O-])cc1` belongs 179 to 181 °C; to `O=C(O)c1cc(N2CCOC2=O)ccc1F`, 232 to 234 °C.
As to `O=C(O)c1ccccc1COc1ccccc1`, the melting point lay within 126 to 128 °C.
To `CC12CCC(CC1=NNC(=O)CCl)C2(C)C` (centres undefined) belongs 185 to 187 °C; to `Cc1ccc(C2CNCCO2)c(C)c1` (centres undefined), 49 to 51 °C; to `COC(=O)c1c(-c2ccc(F)cc2)csc1N`, 135 to 137 °C.
To `Cc1cc2c(n1-c1cccc(C(F)(F)F)c1)CCCC2=O` belongs 121 to 123 °C.
`Cc1ncsc1-c1nc(CCl)no1` had a melting point of 82 to 84 °C.
Turning to `COCCOc1ncccc1C(=O)O`, the melting point was 58 to 60 °C.
To `COc1ccc(C(=O)N2CCC(C(=O)O)CC2)c2ccccc12` belongs 254 to 257 °C.
In the case of `O=c1[nH]c2ccc(NCc3ccc(Cl)cc3)cc2[nH]1`, the melting point fell in the range of 264 to 266 °C.
To `NC(=O)COc1ccc(Cl)cc1S(=O)(=O)Cl` belongs 143 to 145 °C; to `COc1ccc(S(=O)(=O)Nc2cccnc2)cc1N`, 153 to 155 °C.
To `Nc1ccc(-n2ccnc2)nc1` belongs 114 to 116 °C; to `NC(=O)Cn1cc(N)cn1`, 159 to 161 °C; to `Cc1ccc(NC(=O)C(C)Cl)cc1S(=O)(=O)N1CCOCC1` (centres undefined), 151 to 153 °C.
On to `Fc1ccc(C2CNCCO2)cc1` (centres undefined), for which the melting point was 56 to 58 °C.
To `O=C(O)c1c[nH]nc1-c1ccccc1F` belongs 288 to 290 °C; to `Cc1cc(Cl)c2cc([N+](=O)[O-])ccc2n1`, 140 to 142 °C.
To `Cc1nn2c(=S)nc3ccccc3c2[nH]1` belongs 291 to 293 °C; to `O=C(O)c1ccc(Oc2cccc(F)c2)cc1`, 146 to 148 °C.
The molecule `Cn1ncc([N+](=O)[O-])c1C(=O)O` displayed a melting point of 159 to 161 °C.
As to `CC(=O)c1cccc(OCCOc2cccc(C(C)=O)c2)c1`, the melting point fell in the range of 117 to 119 °C.
To `O=S(=O)(c1cccc(-c2nnc(S)n2-c2ccc(OC(F)(F)F)cc2)c1)N1CCOCC1` belongs 247 to 249 °C; to `CC1(c2cccc3ccccc23)NC(=O)NC1=O` (centres undefined), 105 to 107 °C.
To `NCCCNC(=O)c1cccc(O)c1` belongs 136 to 138 °C; to `NC(CC(=O)O)c1cc(Cl)cc(Cl)c1` (centres undefined), 205 to 207 °C.
To `Cc1cc(Br)c2c(c1)C(=O)CCO2` belongs 84 to 86 °C.
For the molecule `NNC(=O)Nc1ccc(Cl)cc1Cl`, the melting point is 153 to 155 °C.
Take `Cc1ccc(-c2nc3ccccc3[nH]2)s1`: the melting point lay in the range of 259 to 261 °C.
For the molecule `O=C(NCCCc1ccccc1)c1ccccc1O`, the melting point was in the range of 77 to 79 °C.
`ClCc1cn(-c2ccccc2)nc1-c1ccccc1` displayed a melting point of 87 to 89 °C.
`N#Cc1ccncc1C(=O)O` registered a melting point of 175 to 177 °C.
`CCOC(=O)/C(C#N)=C\Nc1ccc(F)cc1Cl` displayed a melting point of 168 to 170 °C.
Regarding `O=C(O)Cc1csc(NC(=O)OCC(F)(F)F)n1`, the melting point was in the range of 182 to 184 °C.
To `CC(C)(C)OC(=O)CNC(=O)CCl` belongs 66 to 68 °C.
To `C/C(=N/O)c1cnn(C)c1` belongs 144 to 146 °C.
With `O=C(O)c1ccc(S(=O)(=O)N2CCCCC2)cc1`, the melting point was in the range of 270 to 272 °C.
In turn, `Cc1ccc(C(=O)CCC(=O)O)s1` registered a melting point of 99 to 101 °C.
Take `COc1ccc(-c2cc(N)ccc2OC(F)F)cc1`: the melting point was in the range of 131 to 135 °C.

The values are drawn from a melting point compilation (Tetko et al.).
